According to patent publication US9931287B2, “Simple micro-particulate suspension of behentrimonium chloride with favorable distributive and adsorptive properties” (Formula XO, Inc., priority 2013, dated 2018):

What was measured:
[1] = Appearance of solutions after cooling to room temperature; format: physicochemical; settings: cooled from 85° C. to room temperature
Protocol: A solution of BC is prepared by adding 20 grams BTMC-85 (Mason chemical company, 80% active by weight) to 330 ml of water and heating to 85° C. 50 grams of DPLC (SL-5, Mason chemical company, 35% active by weight) is added. The solution is clear and a slight yellow in color. A solution of BC is prepared in water as above but without addition of DPLC. Both solutions are cooled to room temperature.

[2] = Spraying of formulations onto surface of a pan of water (dilution stability of aggregates); format: physicochemical; settings: mixed vigorously, sprayed onto surface of a pan of water at room temperature (20° C.)
Protocol: The two formulations are each mixed vigorously to disperse their contents and then sprayed onto the surface of a pan of water at room temperature (20° C.).

[3] = Spraying onto a clear glass surface held perpendicular to the ground (retention); format: physicochemical; settings: sprayed on clear glass held perpendicular to the ground; same BC concentration
Source text: A BC/DPLC suspension prepared as in Example 1 and a BC solution (at the same concentration) are sprayed on to a clear glass surface held perpendicular to the ground. The liquids run freely downward. […] This teaches that spraying of the BC/DPLC formulation achieves the desired benefit, as expected in its use on hair and skin.

wet hair of individuals = experiment: Spraying onto the wet hair of individuals; format: in vivo; settings: sprayed onto wet hair, left on while hair dried, combed and brushed while damp
Protocol: A suspension of BC/DPLC was prepared as described in Example 1. It was sprayed onto the wet hair of individuals and left on while the hair dried. The hair was combed and brushed while still damp.
A solution of BC, equal in the concentration BC as in Example 1, was also sprayed on the wet hair of an individual, as described above.

CCCCCCCCCCCCCCCCCCCCCC[N+](C)(C)C [BC, Behentrimonium chloride (N,N,N-trimethyldocosan-1-aminium chloride]
appearance of solution after cooling [1]: forms a uniform milky suspension | behaviour on dilution in water [2]: gradually diffuses down into the water layer resulting in a nearly clear, transparent solution | appearance of glass surface after liquid runs off [3]: clear | feel of hair (wet hair of individuals): oily, and lacked the feel and management properties of the BC/DPLC formulation
